Reference: PubChem BioAssay (NCI)
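Growth conditions: 96-well plates. Treatment: test compound, 48 hours, 5 concentrations. Analysis: linear interpolation between bracketing concentrations; unreached endpoints set to highest concentration. TGI: concentration producing complete growth inhibition.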

Legend:
Test in all cases: growth of human tumour cells (NCI), 48 h
HCT-116 colon = system: HCT-116 colon
HOP-18 NSCLC = system: HOP-18 NSCLC
NCI-H23 lung = system: NCI-H23 lung
OVCAR-4 ovarian = system: OVCAR-4 ovarian
UACC-257 melanoma = system: UACC-257 melanoma
786-0 renal = system: 786-0 renal
KM20L2 colon = system: KM20L2 colon
SNB-19 CNS = system: SNB-19 CNS
ACHN renal = system: ACHN renal
RPMI-8226 leukemia = system: RPMI-8226 leukemia
K-562 leukemia = system: K-562 leukemia
M19-MEL melanoma = system: M19-MEL melanoma
UO-31 renal = system: UO-31 renal
UACC-62 melanoma = system: UACC-62 melanoma
SNB-75 CNS = system: SNB-75 CNS
HCT-15 colon = system: HCT-15 colon
U251 CNS = system: U251 CNS
RXF 393 renal = system: RXF 393 renal
TK-10 renal = system: TK-10 renal
MALME-3M melanoma = system: MALME-3M melanoma
LXFL 529 NSCLC = system: LXFL 529 NSCLC
DMS 273 small cell lung = system: DMS 273 small cell lung
A549 NSCLC = system: A549 NSCLC
COLO 205 colon = system: COLO 205 colon
NCI-H460 lung = system: NCI-H460 lung
HT29 colon = system: HT29 colon
SK-MEL-5 melanoma = system: SK-MEL-5 melanoma
M14 melanoma = system: M14 melanoma
LOX IMVI melanoma = system: LOX IMVI melanoma
HOP-62 NSCLC = system: HOP-62 NSCLC
NCI-H226 lung = system: NCI-H226 lung
SF-295 CNS = system: SF-295 CNS
EKVX NSCLC = system: EKVX NSCLC
HL-60(TB) leukemia = system: HL-60(TB) leukemia
SK-MEL-28 melanoma = system: SK-MEL-28 melanoma
SW-620 colon = system: SW-620 colon
CCRF-CEM leukemia = system: CCRF-CEM leukemia
SNB-78 CNS = system: SNB-78 CNS
OVCAR-8 ovarian = system: OVCAR-8 ovarian
DMS 114 small cell lung = system: DMS 114 small cell lung
NCI-H522 lung = system: NCI-H522 lung
KM12 colon = system: KM12 colon
XF 498 CNS = system: XF 498 CNS
SK-OV-3 ovarian = system: SK-OV-3 ovarian
SN12C renal = system: SN12C renal
SF-268 CNS = system: SF-268 CNS
SK-MEL-2 melanoma = system: SK-MEL-2 melanoma
MOLT-4 leukemia = system: MOLT-4 leukemia
HOP-92 NSCLC = system: HOP-92 NSCLC
SF-539 CNS = system: SF-539 CNS
MDA-N = system: MDA-N
A498 renal = system: A498 renal
T-47D breast = system: T-47D breast
HCC-2998 colon = system: HCC-2998 colon
DU-145 prostate = system: DU-145 prostate
MCF7 breast = system: MCF7 breast
HS 578T breast = system: HS 578T breast
MDA-MB-231 breast = system: MDA-MB-231 breast
OVCAR-5 ovarian = system: OVCAR-5 ovarian
DLD-1 colon = system: DLD-1 colon
NCI/ADR-RES ovarian = system: NCI/ADR-RES ovarian
MDA-MB-435 = system: MDA-MB-435
PC-3 prostate = system: PC-3 prostate
SR leukemia = system: SR leukemia
CAKI-1 renal = system: CAKI-1 renal
IGROV1 ovarian = system: IGROV1 ovarian
OVCAR-3 ovarian = system: OVCAR-3 ovarian
BT-549 breast = system: BT-549 breast

SMILES: O[C@]12c3ccccc3C1CCCC2N1CCOCC1 (stereo not given in full)
- TGI (HCT-116 colon): > 100 µM
- TGI (HOP-18 NSCLC): > 100 µM
- TGI (NCI-H23 lung): > 100 µM
- TGI (OVCAR-4 ovarian): > 100 µM
- TGI (UACC-257 melanoma): > 100 µM
- TGI (786-0 renal): > 100 µM
- TGI (KM20L2 colon): > 100 µM
- TGI (SNB-19 CNS): > 100 µM
- TGI (ACHN renal): > 100 µM
- TGI (RPMI-8226 leukemia): > 100 µM
- TGI (K-562 leukemia): > 100 µM
- TGI (M19-MEL melanoma): > 100 µM
- TGI (UO-31 renal): > 100 µM
- TGI (UACC-62 melanoma): > 100 µM
- TGI (SNB-75 CNS): > 100 µM
- TGI (HCT-15 colon): > 100 µM
- TGI (U251 CNS): > 100 µM
- TGI (RXF 393 renal): > 100 µM
- TGI (TK-10 renal): > 100 µM
- TGI (MALME-3M melanoma): > 100 µM
- TGI (LXFL 529 NSCLC): > 100 µM
- TGI (DMS 273 small cell lung): > 100 µM
- TGI (A549 NSCLC): > 100 µM
- TGI (COLO 205 colon): > 100 µM
- TGI (NCI-H460 lung): > 100 µM
- TGI (HT29 colon): > 100 µM
- TGI (SK-MEL-5 melanoma): > 100 µM
- TGI (M14 melanoma): > 100 µM
- TGI (LOX IMVI melanoma): > 100 µM
- TGI (HOP-62 NSCLC): > 100 µM
- TGI (NCI-H226 lung): > 100 µM
- TGI (SF-295 CNS): > 100 µM
- TGI (EKVX NSCLC): > 100 µM
- TGI (HL-60(TB) leukemia): > 100 µM
- TGI (SK-MEL-28 melanoma): > 100 µM
- TGI (SW-620 colon): > 100 µM
- TGI (CCRF-CEM leukemia): > 100 µM
- TGI (SNB-78 CNS): > 100 µM
- TGI (OVCAR-8 ovarian): > 100 µM
- TGI (DMS 114 small cell lung): > 100 µM
- TGI (NCI-H522 lung): > 100 µM
- TGI (KM12 colon): > 100 µM
- TGI (XF 498 CNS): > 100 µM
- TGI (SK-OV-3 ovarian): > 100 µM
- TGI (SN12C renal): > 100 µM
- TGI (SF-268 CNS): > 100 µM
- TGI (SK-MEL-2 melanoma): > 100 µM
- TGI (MOLT-4 leukemia): > 100 µM

SMILES: NC(=O)/C=C/c1c[nH]c2nccnc12
- TGI (HCT-116 colon): > 37.5 µM
- TGI (HOP-18 NSCLC): 0.793 µM
- TGI (NCI-H23 lung): 2.74 µM
- TGI (OVCAR-4 ovarian): 65.4 µM
- TGI (UACC-257 melanoma): 52.8 µM
- TGI (786-0 renal): > 100 µM
- TGI (HOP-92 NSCLC): > 28.8 µM
- TGI (SF-539 CNS): 6.15 µM
- TGI (KM20L2 colon): 1.35 µM
- TGI (SNB-19 CNS): > 16.7 µM
- TGI (ACHN renal): > 53.6 µM
- TGI (RPMI-8226 leukemia): > 100 µM
- TGI (MDA-N): > 75.2 µM
- TGI (K-562 leukemia): > 18 µM
- TGI (M19-MEL melanoma): 79 µM
- TGI (A498 renal): 12.5 µM
- TGI (UO-31 renal): 0.609 µM
- TGI (UACC-62 melanoma): 8.85 µM
- TGI (SNB-75 CNS): 4.46 µM
- TGI (T-47D breast): 23.5 µM
- TGI (HCT-15 colon): 55.7 µM
- TGI (U251 CNS): > 100 µM
- TGI (HCC-2998 colon): 5.28 µM
- TGI (RXF 393 renal): 4.17 µM
- TGI (TK-10 renal): 6.26 µM
- TGI (MALME-3M melanoma): 2.18 µM
- TGI (LXFL 529 NSCLC): 0.611 µM
- TGI (DMS 273 small cell lung): 10.5 µM
- TGI (DU-145 prostate): > 34 µM
- TGI (A549 NSCLC): > 100 µM
- TGI (MCF7 breast): > 100 µM
- TGI (HS 578T breast): 4.6 µM
- TGI (MDA-MB-231 breast): 31.6 µM
- TGI (COLO 205 colon): 3.27 µM
- TGI (NCI-H460 lung): > 54 µM
- TGI (OVCAR-5 ovarian): 0.662 µM
- TGI (DLD-1 colon): 4.83 µM
- TGI (HT29 colon): > 25.2 µM
- TGI (SK-MEL-5 melanoma): 10.9 µM
- TGI (M14 melanoma): 30.5 µM
- TGI (NCI/ADR-RES ovarian): > 29.1 µM
- TGI (LOX IMVI melanoma): 4.63 µM
- TGI (HOP-62 NSCLC): 19.3 µM
- TGI (NCI-H226 lung): 5.72 µM
- TGI (SF-295 CNS): 28.9 µM
- TGI (EKVX NSCLC): 24.7 µM
- TGI (HL-60(TB) leukemia): > 38.7 µM
- TGI (SK-MEL-28 melanoma): 4.26 µM
- TGI (SW-620 colon): 10.5 µM
- TGI (CCRF-CEM leukemia): 7.4 µM
- TGI (MDA-MB-435): 13.2 µM
- TGI (PC-3 prostate): 26.1 µM
- TGI (OVCAR-8 ovarian): > 87.5 µM
- TGI (DMS 114 small cell lung): 8.53 µM
- TGI (NCI-H522 lung): 45.9 µM
- TGI (SR leukemia): > 100 µM
- TGI (KM12 colon): > 46.3 µM
- TGI (SK-OV-3 ovarian): > 100 µM
- TGI (SN12C renal): 11.4 µM
- TGI (SF-268 CNS): > 21.9 µM
- TGI (CAKI-1 renal): > 100 µM
- TGI (SK-MEL-2 melanoma): 3.95 µM
- TGI (IGROV1 ovarian): > 28.8 µM
- TGI (MOLT-4 leukemia): 1.38 µM
- TGI (OVCAR-3 ovarian): > 39.5 µM
- TGI (BT-549 breast): 8.09 µM

SMILES: O=c1c2cc(Br)ccc2n(C2OC(CO)C(O)C(O)C2O)c(=S)n1-c1ccccc1 (stereo not given)
- TGI (HCT-116 colon): > 100 µM
- TGI (HOP-18 NSCLC): > 100 µM
- TGI (NCI-H23 lung): > 100 µM
- TGI (OVCAR-4 ovarian): > 100 µM
- TGI (UACC-257 melanoma): > 100 µM
- TGI (786-0 renal): > 100 µM
- TGI (HOP-92 NSCLC): > 100 µM
- TGI (SF-539 CNS): > 100 µM
- TGI (KM20L2 colon): > 100 µM
- TGI (SNB-19 CNS): > 100 µM
- TGI (ACHN renal): > 100 µM
- TGI (RPMI-8226 leukemia): > 100 µM
- TGI (K-562 leukemia): > 100 µM
- TGI (M19-MEL melanoma): > 100 µM
- TGI (A498 renal): > 100 µM
- TGI (UO-31 renal): > 100 µM
- TGI (SNB-75 CNS): > 100 µM
- TGI (HCT-15 colon): > 100 µM
- TGI (U251 CNS): > 100 µM
- TGI (HCC-2998 colon): > 100 µM
- TGI (RXF 393 renal): > 100 µM
- TGI (TK-10 renal): > 100 µM
- TGI (MALME-3M melanoma): > 100 µM
- TGI (LXFL 529 NSCLC): > 100 µM
- TGI (A549 NSCLC): > 100 µM
- TGI (COLO 205 colon): > 100 µM
- TGI (NCI-H460 lung): > 100 µM
- TGI (OVCAR-5 ovarian): > 100 µM
- TGI (DLD-1 colon): > 100 µM
- TGI (HT29 colon): > 100 µM
- TGI (LOX IMVI melanoma): > 100 µM
- TGI (HOP-62 NSCLC): > 100 µM
- TGI (NCI-H226 lung): > 100 µM
- TGI (SF-295 CNS): > 100 µM
- TGI (EKVX NSCLC): > 100 µM
- TGI (HL-60(TB) leukemia): > 100 µM
- TGI (SK-MEL-28 melanoma): > 100 µM
- TGI (SW-620 colon): > 100 µM
- TGI (SNB-78 CNS): > 100 µM
- TGI (OVCAR-8 ovarian): > 100 µM
- TGI (DMS 114 small cell lung): > 100 µM
- TGI (NCI-H522 lung): > 100 µM
- TGI (SR leukemia): > 100 µM
- TGI (KM12 colon): > 100 µM
- TGI (XF 498 CNS): > 100 µM
- TGI (SN12C renal): > 100 µM
- TGI (SF-268 CNS): > 100 µM
- TGI (SK-MEL-2 melanoma): > 100 µM
- TGI (IGROV1 ovarian): > 100 µM
- TGI (MOLT-4 leukemia): > 100 µM
- TGI (OVCAR-3 ovarian): > 100 µM
